Source: PMC10122656, “Siglec-6 mediates the uptake of extracellular vesicles through a noncanonical glycolipid binding pocket” (Nature Communications, 2023)
Where “and” joins values, the source holds several entries; their conditions need not be identical. Equal values may be shown once.

Assays:
naïve B-cells = assay: Liposome binding to peripheral blood naïve B-cells by flow cytometry; type: cell-based, human; conditions: sheet Figure S29, 5% GM3-DAG liposomes; cells not given
Experimental: (§1) 200,000 cells/well were plated into a 96-well U-bottom microplate and centrifuged at 300 × g for 5 min. The cells were then resuspended in 50 µL of 50 µM liposome/50 µg/mL (protein concentration) of EV solution in DMEM F12 5% FBS and incubated at 37 °C for 30 min. Excess liposomes were then removed via centrifuged at 300 × g for 5 min followed by washing the cells with FACS solution. The cells were then resuspended in (1:250 V/V) anti-Siglec-flow buffer (1% V/V FBS, 500 µM, EDTA Hank’s Balanced Salt Solution pH 7.4), solution and left to rest on ice for 30 min. The cells were then centrifuged again at 300 × g for 5 min and the cells were resuspended in FACS buffer solution and were then ready for analysis by flow cytometry. Information regarding antibody clone, catalog number supplier, label isotype, and dilution can be found in Supplementary Table 6. The Siglec-positive cells were gated on for liposome-binding analysis (Supplementary Fig. 1b).
(§2) Flow cytometry measurements were collected on a 5-laser Fortessa X-20 (BD Bioscience). All the resulting data were analyzed using FlowJo (10.5.3) software (BD Biosciences).

[1] = target: T1, CHO cells expressing Siglec-6 mutants (C46A, C172A, R to A mutants, F93A, L95A, G175M) (Homo sapiens, UniProt O43699, R114A); assay: Cell assay (liposome/EV binding, flow cytometry); type: cell-based; conditions: sheet Figure S26a, 3% GM3-DAG liposomes, R114A;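 note: AF647 fluorescence intensity from 0.1 mol% AF647–PEG45–DSPE in liposomes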
T1 construct: These new CHO cell lines are the full-length versions of the Siglecs; expressed in transfected cells
Experimental: (§3) Mutations were introduced into each Siglec via gene overlap extension PCR mutagenesis (primers were ordered through IDT). Mutagenesis primers can be found in Supplementary Tables 2 and 3 for the critical arginine mutants of the entire Siglec family and the additional Siglec-6 mutants respectively.
as §1, §2

[2] = target: T2, CHO cells expressing Siglec-6 mutants (C46A, C172A, R to A mutants, F93A, L95A, G175M) (Homo sapiens, UniProt O43699, C172A); assay: Cell assay (liposome/EV binding, flow cytometry); type: cell-based; conditions: sheet Figure S26a, 3% GM3-DAG liposomes, C172A;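 note: AF647 fluorescence intensity from 0.1 mol% AF647–PEG45–DSPE in liposomes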
T2 construct: These new CHO cell lines are the full-length versions of the Siglecs; expressed in transfected cells
Experimental: as §3, §1, §2

[3] = target: T3, Daudi cells transduced with WT Siglec-6 (Homo sapiens, UniProt O43699); assay: Imaging flow cytometry internalization; type: cell-based; conditions: 60 min at 4 or 37 °C
T3 construct: expressed in transfected cells; host or cells: Daudi cells (human B-cell line), lentiviral transduction
Experimental: Approximately 2 × 10^5 Daudi cells/well were plated into a 96-well U-bottom microplate and centrifuged at 300 × g for 5 min. The cell pellets were placed on ice, and 50 µL of 100 µM of liposome or 1:20 µL of EVs in RPMI growth medium (Gibco) containing 10% (V/V) fetal bovine serum (FBS; Gibco), 100 U/mL penicillin (Gibco), and 100 µg/mL streptomycin (Gibco) was added to their corresponding wells. Plates were incubated for 1 h at either 4 or 37 °C. After incubation, plates were centrifuged at 300 × g, 5 min, 4 °C then incubated with fluorescently conjugated anti-Siglec-6 antibody (Alexa Fluor 488; 1:250 dilution; R&D Systems) for 25 min at 4 °C. The plates were centrifuged once more at 300 × g, 4 °C, 5 min and the resulting cell pellet was resuspended in 40 µL of flow buffer (1% FBS, 500 µM EDTA Hank’s Balanced Salt Solution pH 7.4). 5000 events were collected for each sample using the ImageStream®X Mk II Flow cytometer (excitation lasers 488 nm and 642 nm, ×60 magnification). Data analysis was performed using IDEAS software, version 6.2.

[4] = system: CHO cells expressing Siglec-6/8 chimeras; assay: Cell assay (liposome binding, flow cytometry); type: cell-based, human
Experimental: as §1, §2
The genes for the constructs containing each domain of Siglec-6 to the two others from Siglec-8 were synthesized by GeneArt and designed with a 5’ NheI and 3’ AgeI site immediately before the start codon and stop codon respectively. […]

WT Siglec-6 = WT Siglec-6 (Homo sapiens, UniProt O43699); assay: Binding competition between GM1 GLLs and 5 nGLLs; conditions: 1 mol% GM1 liposomes
Source text: Supplementary Fig. 20: Binding competition between GM1 GLLs and 5 nGLLs against WT Siglec-6.
Binding of 1 mol% GM1 liposomes to WT Siglec-6 in the presence of an increasing concentration of 5 mol%
5 nGLLs. Data is presented with a representative flow cytometry histogram and was quantified as the mean
± one standard deviation of the median fluorescent intensity (MFI) from […] three technical replicates. A
Brown-Forsythe and Welch one-way ANOVA was used to compare the binding of liposomes formulated
(1 picture or pasted object on this page, not shown here)

R92K Siglec-6 CHO cells = target: T4, R92K Siglec-6 CHO cells (Homo sapiens, UniProt O43699, R92K); assay: Cell assay (liposome/EV binding, flow cytometry); type: cell-based
T4 construct: These new CHO cell lines are the full-length versions of the Siglecs; expressed in transfected cells
Experimental: as §3
as §1, with “The Siglec-positive cells were gated on for liposome-binding analysis (Supplementary Fig. 1b).” left out
as §2

LAD2 cells = assay: Liposome/EV binding to LAD2 cells by flow cytometry; type: cell-based, human
Experimental: as §1, §2
The LAD2 cell line (a gift from Arnold Kirshenbaum) was cultured in StemPro-34 SFM media (Life Technologies) supplemented with 2 mM L-glutamine, 100 U/ml penicillin, […] streptomycin, and 100 ng/ml recombinant human SCF (PeproTech, Rocky Hill, NJ). […]

[5] = system: Daudi cells transduced with an empty vector; assay: pHrodo internalization assay by flow cytometry; type: cell-based, human; conditions: sheet Figure S42b

T2 sequence (O43699 27-453 C172A): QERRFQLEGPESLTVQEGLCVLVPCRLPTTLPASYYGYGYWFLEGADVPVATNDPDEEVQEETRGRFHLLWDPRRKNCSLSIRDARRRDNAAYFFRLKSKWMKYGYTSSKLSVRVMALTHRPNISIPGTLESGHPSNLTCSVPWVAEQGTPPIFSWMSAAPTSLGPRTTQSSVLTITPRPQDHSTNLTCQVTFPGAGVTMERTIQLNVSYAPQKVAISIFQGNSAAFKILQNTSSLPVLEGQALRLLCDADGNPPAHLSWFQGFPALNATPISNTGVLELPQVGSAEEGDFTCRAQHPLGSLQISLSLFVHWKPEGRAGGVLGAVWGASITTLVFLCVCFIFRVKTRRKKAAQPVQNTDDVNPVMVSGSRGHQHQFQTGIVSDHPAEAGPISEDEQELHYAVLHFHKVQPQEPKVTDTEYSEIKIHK
T4 sequence (O43699 27-453 R92K): as the sequence (O43699 27-453 C172A) above, with R66K, A146C counted along it
T1 sequence (O43699 27-453 R114A): as the sequence (O43699 27-453 C172A) above, with R88A, A146C counted along it
T3 sequence (O43699 27-453): as the sequence (O43699 27-453 C172A) above, with A146C counted along it
Sequence of WT Siglec-6 (O43699 27-453): as the sequence (O43699 27-453 C172A) above, with A146C counted along it

CCCCCCCCCCCCCCCCOCC(COCCCCCCCCCCCCCCCC)OCc1cn(CCO[C@@H]2O[C@H](CO)[C@@H](O[C@@H]3O[C@H](CO)[C@H](O)[C@H](O[C@]4(C(=O)O)C[C@H](O)[C@@H](NC(C)=O)[C@H]([C@H](O)[C@H](O)CO)O4)[C@H]3O)[C@H](O)[C@H]2O)nn1 [GM3-DAG]
liposome binding, fluorescence signal (replicates) (naïve B-cells): 154 and 151 and 136 and 149
liposome binding, fluorescence signal (replicates) [1]: 3286 and 2523 and 2193 and 4407
liposome binding, fluorescence signal (replicates) [2]: 837 and 738 and 839 and 676

CCCCCCCCCCCCCCCCOCC(COCCCCCCCCCCCCCCCC)OCc1cn(CCO[C@@H]2O[C@H](CO)[C@@H](O[C@@H]3O[C@H](CO)[C@H](O)[C@H](O[C@]4(C(=O)O)C[C@H](O)[C@@H](NC(C)=O)[C@H]([C@H](O)[C@H](O)CO)O4)[C@H]3O)[C@H](O)[C@H]2O)nn1 [nGL 5]
internalization of 5 nGLLs by imaging flow cytometry [3]: internalize 5 nGLLs at 37 °C but not 4 °C
5 liposome binding to chimeras with one individual Siglec-6 domain [4]: none of the three individual Siglec-6 domains supported binding
5 nGLL binding to chimera with the first two domains of Siglec-6 [4]: significantly above background
binding of GM1 GLLs to WT Siglec-6 in presence of increasing concentration of 5 mol% 5 nGLLs (WT Siglec-6): decreased
5 liposome binding gated on identical Siglec-6 expression levels, MFI (Fig. S26e) (R92K Siglec-6 CHO cells; R92K Siglec-6, replicates): 29.25 and 36.25 and 24.25
5 nGLL binding to R92K Siglec-6 CHO cells (R92K Siglec-6 CHO cells; cell assay, expression 42% of WT): minimal binding
5 nGLL binding to LAD2 cells (LAD2 cells): bound robustly
5 nGLL binding to LAD2 cells after pre-incubation with a Siglec-6 antibody (LAD2 cells): abrogated

GM3
liposome internalization signal (replicates) ([5]; Emp-4 (empty vector, 4)): 6.1 and 7 and 8.7 and 6.3
liposome internalization signal (replicates) ([5]; emp-37 (empty vector, 37)): 11.2 and 11.5 and 13.6 and 13.8
